Experimental data taken from patent US6077680A (The University of Florida, dated 2000).

The compounds below were run on rat brain membrane K channels (primarily Kv1.2) (assay: not given). Conditions: not given.
Assay type: binding

Question: Which results are given for “RSCIDTIPKSRCTAPQCKHSMKYRLSFCRATCGTC [K30A]”?
Answer: Difference of Free Energy of Binding: 0.98; IC50 Ratio: 5.3; increase in relative free energy of binding: approximately 1 kcal/mol

Question: “RSCIDTIPKSRCTAPQCKHSMKYRLSFCRKACGTC [T31A]” was tested. Which “Difference of Free Energy of Binding” value did it give?
Answer: Its value is -0.30.

Question: What about the “IC50 Ratio” value of the same compound?
Answer: Its value is 0.6.

Question: And the “binding affinity for rat brain K channels relative to wild-type ShK toxin, in words” value?
Answer: Its value is “increased affinities”.

Question: Which results are given for “RSCIDTIPKSRCTAPQCKHSMKYRLSFCRKTCGAC [T34A]”?
Answer: Difference of Free Energy of Binding: 0.0; IC50 Ratio: 1.0

Same assay, conditions: read-out: IC50 Rat Brain 125I-CTX

Question: `CC[C@H](C)[C@@H]1NC(=O)[C@@H](NC(=O)[C@H](CO)NC(=O)[C@@H](N)CCCNC(=N)N)CSSC[C@@H](C(=O)O)NC(=O)[C@H]([C@@H](C)O)NC(=O)CNC(=O)[C@@H]2CSSC[C@@H]3NC(=O)[C@H](CCC(N)=O)NC(=O)[C@H](Cc4ccccc4)NC(=O)[C@H](C)NC(=O)[C@H]([C@@H](C)O)NC(=O)[C@H](CSSC[C@H](NC(=O)[C@H](Cc4ccccc4)NC(=O)[C@H](CO)NC(=O)[C@H](CC(C)C)NC(=O)[C@H](CCCNC(=N)N)NC(=O)[C@H](CO)NC(=O)[C@H](CCCCN)NC(=O)[C@H](CCSC)NC(=O)[C@H](CO)NC(=O)[C@H](Cc4c[nH]cn4)NC(=O)[C@H](CCCCN)NC3=O)C(=O)N[C@@H](CCCNC(=N)N)C(=O)N[C@@H](CCCCN)C(=O)N[C@@H]([C@@H](C)O)C(=O)N2)NC(=O)[C@H](CCCNC(=N)N)NC(=O)[C@H](CO)NC(=O)[C@H](CCCCN)NC(=O)[C@@H]2CCCN2C(=O)[C@H]([C@@H](C)CC)NC(=O)[C@H]([C@@H](C)O)NC(=O)[C@H](CC(=O)O)NC1=O` [Y23S] was tested. Which IC50 did it give?
Answer: Its IC50 is over 5 µM.

These compounds were tested against rat brain membrane K channels (delayed rectifier, primarily Kv1.2) (rat) (UniProt P63142) (assay: 125I-DTX displacement, rat brain membranes). Conditions: not given.

Question: For ShK I7A (peptide), which IC50 ratio (analog IC50/ShK IC50) is on record?
Answer: The IC50 ratio (analog IC50/ShK IC50) was 5.2.

Question: What about the free energy difference of binding of the same compound?
Answer: The free energy difference of binding was 4.02 kJ/mol.

Question: Which IC50 ratio (analog IC50/ShK IC50) does the source give for ShK K9A (peptide) here?
Answer: The IC50 ratio (analog IC50/ShK IC50) was 1.3.

Question: What about the free energy difference of binding of the same compound?
Answer: The free energy difference of binding was 0.628 kJ/mol.

Question: For ShK P8A (peptide), which IC50 ratio (analog IC50/ShK IC50) is on record?
Answer: Its IC50 ratio (analog IC50/ShK IC50) is 1.9.

Question: And the free energy difference of binding?
Answer: Its free energy difference of binding is 1.59 kJ/mol.

Question: What does the source list for ShK R1A (peptide)?
Answer: IC50 ratio (analog IC50/ShK IC50): 1.5; free energy difference of binding: 0.962 kJ/mol
